PubChem BioAssay (NCI)
Several values for one entry are separate records, joined by “and”; a condition that tells them apart may be missing. Identical values can stand only once.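 Cultured in 96-well plates, cells were exposed to test compound for 48 hours across five concentrations. GI50: concentration for 50% inhibition of growth. TGI: total growth inhibition.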

Experiments:
Assay in all cases: DTP human tumour cell line panel, 48 h
[1] = test system: HS 578T breast
[2] = test system: OVCAR-8 ovarian
[3] = test system: SF-539 CNS
[4] = test system: TK-10 renal
[5] = test system: BT-549 breast
[6] = test system: HOP-62 NSCLC
[7] = test system: MALME-3M melanoma
[8] = test system: U251 CNS

Row | SMILES | TGI [1] | TGI [2] | TGI [3] | TGI [4] | TGI [5] | TGI [6] | TGI [7] | TGI [8] | GI50 [5] | GI50 [6] | GI50 [1] | GI50 [7] | GI50 [2] | GI50 [3] | GI50 [4] | GI50 [8]
1 | COC(=O)c1c[nH]c(=O)[nH]c1=O | > 100 µM | > 100 µM | > 100 µM | > 100 µM |  |  |  |  |  |  |  |  |  |  |  | 
2 | COc1ccc(C2OC(=O)c3c2ccc2ccccc32)c(C)c1 (configuration not stated) | > 100 µM | > 100 µM |  | 17.7 µM | 69.4 µM | 50 µM | 17.3 µM | 20.2 µM |  |  |  |  |  |  |  | 
3 | CCN1CCN(c2nc(NNC(=O)Cc3ccccc3)nc(N3CCN(C(c4ccccc4)c4ccccc4)CC3)n2)CC1 | 3.79 µM | 6.57 µM | 3.24 µM | 3.85 µM | 3.61 µM | 5.08 µM | 3.29 µM | 3.6 µM | 1.67 µM | 2.06 µM | 1.68 µM | 1.64 µM | 2.51 µM | 1.78 µM | 1.97 µM | 1.78 µM
4 | Cl.[Pt].[c-]1ccccc1-c1ccccn1.c1ccc(P(c2ccccc2)C([PH+](c2ccccc2)c2ccccc2)[PH+](c2ccccc2)c2ccccc2)cc1 | 20.8 µM | > 100 µM | 5.6 µM | 15.5 µM | 6.82 µM | 9 µM | 2.65 µM | 2.69 µM | 2.09 µM | 2.39 µM | 2.22 µM | 0.42 µM | 0.853 µM | 1.54 µM | 1.74 µM | 0.577 µM
5 | C(=N\Nc1nnc2c(n1)[nH]c1ccccc12)/c1cccnc1 | > 100 µM | > 100 µM | > 100 µM | > 100 µM | > 100 µM | > 100 µM | > 100 µM | > 100 µM |  |  |  |  |  |  |  | 
6 | CC(CN=C(CC(=O)c1ccc(Br)cc1)c1ccccc1)N=C(CC(=O)c1ccc(Br)cc1)c1ccccc1 (configuration not stated) | > 100 µM | > 100 µM | > 100 µM | > 100 µM | > 100 µM | > 100 µM | > 100 µM | > 100 µM | 42.1 µM | > 100 µM | > 100 µM | 23.3 µM | 34.6 µM | > 100 µM | 7.56 µM | > 100 µM
7 | COc1ccc(C(=O)c2cc(OC)c(OC)c(OC)c2)cc1OC(C)=O | > 100 µM | > 100 µM | 0.0376 µM | > 100 µM | > 67.5 µM | > 100 µM | > 100 µM | > 100 µM | < 0.0199 µM | 0.0618 µM | 0.0235 µM | 35.4 µM | 0.0451 µM | < 0.01 µM | 59 µM | 0.0392 µM
8 | O=C(/C=C/c1ccc(C(F)(F)F)cc1)c1ccc(Nc2nc(NCCO)nc(NCCO)n2)cc1 | 54 µM | 20.2 µM | 3.38 µM | 14.5 µM | 8 µM | 7.99 µM | 18.8 µM |  | 2.53 µM | 2.42 µM | 5.44 µM | 4.95 µM | 3.31 µM | 1.68 µM | 2.93 µM | 
9 | COc1ccc(-c2oc(=O)ccc2C#Cc2cc(OC)c(OC)c(OC)c2)cc1O | > 100 µM | > 100 µM | 86.2 µM | > 100 µM | > 100 µM | 87.4 µM | > 100 µM | 50.6 µM | 27 µM | 18.5 µM | 30.2 µM | 71.8 µM | 35.2 µM | 20 µM | 83.9 µM | 13.5 µM
10 | Cn1nc(C(F)(F)F)c(-c2ccc(Cl)c(C(F)(F)F)c2)c1-c1ccc(OCc2ccc(Cl)cc2)cc1O | 8.98 µM | 6.37 µM | 5.95 µM | 7.13 µM | 6.51 µM | 6.04 µM | 4.96 µM | 5.62 µM | 1.54 µM | 1.58 µM | 1.42 µM | 1.39 µM | 1.73 µM | 1.65 µM | 1.91 µM | 1.66 µM
11 | COc1ccc(N2CCN(C(=O)c3ccccc3Nc3ccnc(C(F)(F)F)c3)CC2)cc1 | > 100 µM | > 100 µM | > 100 µM | > 100 µM | > 100 µM | > 100 µM | > 100 µM | > 100 µM | 68.5 µM | 54.8 µM | 60.6 µM | > 100 µM | 40.7 µM | > 100 µM | 54.7 µM | 83.9 µM
12 | O=[N+]([O-])c1cccc([N+](=O)[O-])c1S(=O)(=O)c1ccccc1 | 43.9 µM | 6.21 µM | 30.2 µM | 30.2 µM | 13.6 µM | 35.1 µM | 6.19 µM | 23 µM |  |  |  |  |  |  |  | 
13 | NC(=O)CCC(NC(=O)OCc1ccccc1)C(=O)OCC(=O)c1ccccc1 (configuration not stated) | > 100 µM |  | > 100 µM | > 100 µM | > 100 µM | > 100 µM | > 100 µM | > 100 µM | > 100 µM | > 100 µM | > 100 µM | > 100 µM |  | > 100 µM | > 100 µM | > 100 µM
14 | C[C@]12O[C@H](C[C@]1(O)CO)n1c3ccccc3c3c4c(c5c6ccccc6n2c5c31)CNC4=O | 3.01 µM and 3.61 µM | > 5.35 µM and 6.53 µM | 0.889 µM and 0.54 µM | 1.07 µM and 0.744 µM | 1.45 µM and 1.81 µM | 1.25 µM and 1.07 µM | 1.35 µM and 1.27 µM | 3.58 µM and 2.95 µM | 0.203 µM and 0.288 µM | 0.0499 µM and 0.0664 µM | 0.178 µM and 0.239 µM | 0.0324 µM and 0.0298 µM | 0.367 µM and 0.391 µM | 0.114 µM and 0.0846 µM | 0.0223 µM and 0.0189 µM | 0.808 µM and 0.523 µM
15 | O=NC1c2cccc3cccc(c23)C1N=O (configuration not stated) | 75.7 µM | 6.65 µM | 26.6 µM | 37.1 µM | 15.6 µM | 19.5 µM |  | 28.1 µM |  |  |  |  |  |  |  | 
16 | COc1ccc(OC)c(-c2nc3sccn3c2/C=C2/C(=O)Nc3ccc(Cl)cc32)c1 | 53.5 µM | > 100 µM | 60.9 µM | > 100 µM | 74.3 µM | 60.5 µM | 80.8 µM | 74.1 µM | 24.2 µM | 25 µM | 15.6 µM | 30.8 µM | 34.4 µM | 24.3 µM | 29.9 µM | 24.9 µM
17 | Nc1ncnc2c1c(C(F)(F)F)cn2[C@@H]1O[C@H](CO)[C@@H](O)[C@H]1O | 7.54 µM | > 100 µM | 2.73 µM | > 100 µM | 3.44 µM | > 100 µM | 2.51 µM | > 89.6 µM | 0.192 µM | 0.278 µM | 0.813 µM | 0.104 µM | 0.595 µM | 0.642 µM | 0.926 µM | 1.33 µM
